pIC50, pKd: −log10 of the molar value.

Usually inhibition stands for how much of the control response was suppressed. In general, pIC50 refers to the IC50 on a negative log10 scale, so that one unit is a factor of ten. As a reminder, the pKd is −log10 of the Kd, conventionally taken in molar units.

One assay deals with wild-type Kir6.2 + SUR1. On the set-up: method as in Proks et al., 2010; Vedovato et al., 2015. The settings on record: MWC-type model, fits to published data; ref Proks et al., 2010; Vedovato et al., 2015; cited from earlier work.
The target in assay [1] is T1, Kir6.2-GFP + SUR1 (Homo sapiens, UniProt Q14654). The experiment in a line: Current inhibition in excised inside-out patches. In kind it is biochemical. On the set-up: ANAP labelling is specific and only full-length Kir6.2 is expressed at the cell membrane; expressed in transfected cells; host or cells: HEK-293T. The method, then:
(§1) Currents were measured from patches from cells expressing KATP that were excised in the absence of Mg^2+. Under such conditions, nucleotides can bind to both sites on SUR1, but no activation occurs, allowing inhibitory currents to be measured in isolation ([Gribble et al., 1998]; [Ueda et al., 1999]; [Puljung et al., 2019]).

For assay [2], the target named is T1, Kir6.2-GFP + SUR1. The experiment in a line: Current inhibition in excised inside-out patches (patch-clamp fluorometry). The class given is biochemical. Also noted: full length, fully ANAP-labelled Kir6.2 protein was produced and successfully trafficked to the membrane in the presence of SUR1; expressed in transfected cells; host or cells: HEK-293T. How it is done: as §1
Currents were measured as described above.
For orientation: Patch clamp records ionic current or voltage across a cell membrane.

The target in another assay is Kir6.2*,C166S-GFP + SUR1 (Homo sapiens, UniProt Q14654, C166S). Described as above.
The target in the next assay is T2, Kir6.2-GFP (no SUR1) (Homo sapiens, UniProt Q14654).
T2 construct: ANAP labelling is specific and only full-length Kir6.2 is expressed at the cell membrane; expressed in transfected cells; host or cells: HEK-293T
T2 sequence (Q14654 1-390): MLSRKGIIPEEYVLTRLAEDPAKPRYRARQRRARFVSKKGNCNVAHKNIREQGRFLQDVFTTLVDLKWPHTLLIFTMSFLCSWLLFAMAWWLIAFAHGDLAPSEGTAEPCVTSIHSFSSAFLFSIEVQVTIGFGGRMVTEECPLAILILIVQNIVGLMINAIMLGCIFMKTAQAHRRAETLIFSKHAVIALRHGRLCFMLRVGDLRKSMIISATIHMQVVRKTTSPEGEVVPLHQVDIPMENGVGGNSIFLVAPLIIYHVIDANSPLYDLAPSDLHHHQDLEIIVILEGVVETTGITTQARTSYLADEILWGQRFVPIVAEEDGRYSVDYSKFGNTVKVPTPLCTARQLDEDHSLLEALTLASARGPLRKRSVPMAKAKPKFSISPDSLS
The experiment in a line: Current inhibition in excised inside-out patches. In kind it is biochemical. How it is done:
as §1

The test system of assay [3] is second nucleotide binding site of SUR1. Also noted: method as in Puljung et al., 2019. As to conditions: ref Puljung et al., 2019, cited from earlier work.
[4] abbreviates: excised patches, Hill fit with 1-Imax set to 0, n = 3.
Where [5] appears, read: binding to stimulatory second nucleotide binding site of SUR1.

T1 sequence (Q09428 whole entry partner, one chain of several): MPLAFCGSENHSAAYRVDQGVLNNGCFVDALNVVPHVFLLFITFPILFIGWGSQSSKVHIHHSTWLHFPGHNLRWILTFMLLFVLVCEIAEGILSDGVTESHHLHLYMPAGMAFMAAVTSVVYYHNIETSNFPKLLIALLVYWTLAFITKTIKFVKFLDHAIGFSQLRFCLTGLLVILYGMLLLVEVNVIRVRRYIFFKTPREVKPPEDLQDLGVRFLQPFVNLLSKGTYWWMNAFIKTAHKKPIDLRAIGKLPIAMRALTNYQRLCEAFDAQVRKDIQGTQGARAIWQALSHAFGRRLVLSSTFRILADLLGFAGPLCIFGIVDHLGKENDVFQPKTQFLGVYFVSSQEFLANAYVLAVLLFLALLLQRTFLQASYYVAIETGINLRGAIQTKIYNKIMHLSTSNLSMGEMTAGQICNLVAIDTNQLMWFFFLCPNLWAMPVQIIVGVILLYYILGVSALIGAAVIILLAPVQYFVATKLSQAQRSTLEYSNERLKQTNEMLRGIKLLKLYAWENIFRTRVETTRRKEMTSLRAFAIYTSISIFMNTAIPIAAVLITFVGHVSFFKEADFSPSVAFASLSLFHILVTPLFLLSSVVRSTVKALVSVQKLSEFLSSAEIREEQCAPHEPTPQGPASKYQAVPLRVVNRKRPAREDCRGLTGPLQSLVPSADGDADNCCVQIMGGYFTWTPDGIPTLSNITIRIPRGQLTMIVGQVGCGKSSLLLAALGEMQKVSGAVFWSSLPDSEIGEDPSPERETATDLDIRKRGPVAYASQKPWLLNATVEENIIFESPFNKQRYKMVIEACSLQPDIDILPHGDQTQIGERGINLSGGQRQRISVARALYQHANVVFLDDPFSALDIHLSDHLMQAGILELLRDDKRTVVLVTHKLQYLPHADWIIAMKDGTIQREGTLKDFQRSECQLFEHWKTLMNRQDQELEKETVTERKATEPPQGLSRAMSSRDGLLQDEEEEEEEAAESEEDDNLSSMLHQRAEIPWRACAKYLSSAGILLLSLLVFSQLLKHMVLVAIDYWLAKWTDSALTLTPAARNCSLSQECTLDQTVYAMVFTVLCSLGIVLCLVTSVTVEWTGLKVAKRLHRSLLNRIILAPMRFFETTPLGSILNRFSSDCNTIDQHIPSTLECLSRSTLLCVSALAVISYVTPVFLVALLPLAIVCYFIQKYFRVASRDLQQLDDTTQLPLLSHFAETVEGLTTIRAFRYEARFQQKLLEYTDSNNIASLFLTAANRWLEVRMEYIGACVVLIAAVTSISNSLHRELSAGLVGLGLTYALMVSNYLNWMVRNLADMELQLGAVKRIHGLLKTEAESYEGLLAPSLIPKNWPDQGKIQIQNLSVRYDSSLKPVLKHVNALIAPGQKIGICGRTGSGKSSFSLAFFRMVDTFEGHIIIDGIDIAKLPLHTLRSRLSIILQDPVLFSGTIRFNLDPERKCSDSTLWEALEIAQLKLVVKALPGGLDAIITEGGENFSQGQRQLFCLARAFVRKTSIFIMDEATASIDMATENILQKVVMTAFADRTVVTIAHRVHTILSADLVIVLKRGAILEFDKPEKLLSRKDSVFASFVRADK
Chain of Kir6.2*,C166S-GFP + SUR1 (Q14654 whole entry C166S): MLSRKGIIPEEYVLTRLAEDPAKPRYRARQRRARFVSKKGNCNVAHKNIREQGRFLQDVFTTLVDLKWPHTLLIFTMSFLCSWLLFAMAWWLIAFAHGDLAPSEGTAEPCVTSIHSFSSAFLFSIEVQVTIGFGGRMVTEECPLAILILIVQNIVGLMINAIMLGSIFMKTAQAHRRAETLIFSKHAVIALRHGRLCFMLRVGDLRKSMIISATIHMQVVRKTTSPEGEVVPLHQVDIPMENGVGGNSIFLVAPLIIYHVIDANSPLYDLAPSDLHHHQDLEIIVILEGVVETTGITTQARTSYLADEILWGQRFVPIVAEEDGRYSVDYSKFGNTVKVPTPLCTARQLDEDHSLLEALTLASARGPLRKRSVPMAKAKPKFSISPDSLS
Chain of Kir6.2*,C166S-GFP + SUR1 (Q09428 whole entry partner): as the sequence (Q09428 whole entry partner, one chain of several) above

Turning to `Nc1ncnc2c1ncn2[C@@H]1O[C@H](COP(=O)(O)OP(=O)(O)OP(=O)(O)O)[C@@H](O)[C@H]1O` [ATP], the D in the assay on wild-type Kir6.2 + SUR1 was 0.03. In addition, the KA in the assay on wild-type Kir6.2 + SUR1 is 30000 M⁻¹. The “h (Hill coefficient) current inhibition” value was 1.28 at Kir6.2-GFP + SUR1 [1] (Mg2+-free, Hill fit); 1.42 on Kir6.2-GFP + SUR1 [2] (excised inside-out patches, Mg2+-free, Hill fit); 1.15 at Kir6.2-GFP (no SUR1) (excised inside-out patches, no SUR1, Mg2+-free, Hill fit). In addition, the “current inhibition at 10 mM” value on Kir6.2*,C166S-GFP + SUR1 (10 mM ATP, excised patch) is “only partial inhibition”.

Take `CCCCNC(=O)NS(=O)(=O)c1ccc(C)cc1` [tolbutamide]: the inhibition at 100 µM was found to be 46.5% on Kir6.2-GFP + SUR1 [1] (100 µM tolbutamide, n = 3) and 57.7% on Kir6.2-GFP + SUR1 [2] (100 µM tolbutamide, excised inside-out patches, n = 4). On Kir6.2-GFP (no SUR1) (100 µM tolbutamide, absence of SUR1, n = 5), the “current inhibition by tolbutamide” value was “not affected”.

In the case of `CCN(CC)CC` [triethylamine], the “h (Hill coefficient) current inhibition” value at Kir6.2-GFP + SUR1 [2] (setting [4]) stood at 0.87; at Kir6.2*,C166S-GFP + SUR1 (setting [4]) it was 1.12. The pIC50 on Kir6.2-GFP + SUR1 [2] (excised patches, Hill fit with 1-Imax set to 0, n = 3, read-out: IC50 current inhibition) was 1.20.

MgTNP-ADP: in assay [3] (setting [5]), the KA is 58000 M⁻¹ and the negative-log Kd (pKd) is 4.77. Also, in assay [3] (currents and binding measured in separate preparations), the “E (factor by which binding to SUR1 stabilised channel opening)” value was 2.2.

The record behind these values is PMC7004565, “Nucleotide inhibition of the pancreatic ATP-sensitive K^+ channel explored with patch-clamp fluorometry” (eLife, 2020).
